Test results taken from patent publication US12281149B2, “Modulators of G-protein coupled receptors” (priority 2021, dated 2025).
*1 amine or outer side, *2 acyl side, *3 side chain or, on linkers, in order; H or OH if unused. Where a SMILES comes first, the peptide text is derived from it. Side-chain parts run from the residue outwards. [ ]: non-standard residue; d: D form. The star is where a group is joined. cPentCO(1-(4-ClPh)) = O=C(C1(c2ccc(Cl)cc2)CCCC1)*; C20 diacid = O=C(O)CCCCCCCCCCCCCCCCCCC(=O)*; β2hAla(2S) = C[C@@H](CN[*:1])C(=O)[*:2]; γGlu = O=C(O)[C@H](CCC(=O)[*:2])N[*:1]; X79 = O=C1CC(C(=O)*)(c2ccccn2)CN1; X7 = CC(C)(C(=O)*)c1cccc(C#N)c1; NH(4-F-phenyl) = Fc1ccc(N*)cc1; AEEA = NCCOCCOCC(=O)O; Aib = CC(C)(N)C(=O)O; CO = O=C([*:1])[*:2]; GABA = NCCCC(=O)O; βAla = NCCC(=O)O

Legend:
Assay type in all cases: cell-based
GLP-1 receptor [1] = biological target: T1, GLP-1 receptor (Homo sapiens, UniProt P43220); experiment: PathHunter β-arrestin assay, GLP-1 receptor; parameters: host or cells: PathHunter CHO-K1 GLP1R β-Arrestin Cell Line
T1 sequence (P43220 24-463): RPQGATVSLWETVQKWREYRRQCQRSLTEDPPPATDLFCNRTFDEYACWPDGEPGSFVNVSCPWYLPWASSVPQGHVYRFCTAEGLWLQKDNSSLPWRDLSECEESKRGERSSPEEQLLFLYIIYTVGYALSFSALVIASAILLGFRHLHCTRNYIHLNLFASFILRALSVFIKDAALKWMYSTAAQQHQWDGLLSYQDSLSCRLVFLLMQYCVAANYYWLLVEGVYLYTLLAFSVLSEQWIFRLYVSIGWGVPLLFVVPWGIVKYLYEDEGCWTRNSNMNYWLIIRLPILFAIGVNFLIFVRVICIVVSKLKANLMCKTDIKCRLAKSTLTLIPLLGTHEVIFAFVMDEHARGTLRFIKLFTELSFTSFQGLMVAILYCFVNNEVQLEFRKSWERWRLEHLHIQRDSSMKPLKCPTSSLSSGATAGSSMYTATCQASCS

GLP-1 receptor [2] = biological target: T1, GLP-1 receptor; experiment: HitHunter cAMP assay, GLP-1 receptor; details: for Emax: CHO cells, cAMP, normalized to maximum signal from GLP-1 (high) and DMSO (low), read-out: Emax GLP-1R
GIP receptor [3] = biological target: T2, GIP receptor (Homo sapiens, UniProt P48546); experiment: PathHunter β-arrestin assay, GIP receptor; parameters: host or cells: PathHunter CHO-K1 GIPR β-Arrestin Cell Line
T2 sequence (P48546 22-466): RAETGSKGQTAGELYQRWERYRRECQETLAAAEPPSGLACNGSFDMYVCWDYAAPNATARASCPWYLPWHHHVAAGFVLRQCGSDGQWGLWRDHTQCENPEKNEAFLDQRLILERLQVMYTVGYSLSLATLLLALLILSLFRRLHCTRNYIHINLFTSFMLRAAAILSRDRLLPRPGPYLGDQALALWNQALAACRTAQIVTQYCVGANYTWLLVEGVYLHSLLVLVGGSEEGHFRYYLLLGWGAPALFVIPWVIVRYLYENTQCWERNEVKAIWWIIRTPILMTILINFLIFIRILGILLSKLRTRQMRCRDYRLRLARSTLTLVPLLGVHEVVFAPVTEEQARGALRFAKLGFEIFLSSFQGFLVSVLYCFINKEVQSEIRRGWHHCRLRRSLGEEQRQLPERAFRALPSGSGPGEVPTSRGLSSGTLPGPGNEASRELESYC

GIP receptor [4] = biological target: T2, GIP receptor; experiment: HitHunter cAMP assay, GIP receptor; details: for Emax: CHO cells, cAMP, normalized to maximum signal from GIP (high) and DMSO (low), read-out: Emax GIP-1R
[5] = β-arrestin-2 recruitment, PathHunter CHO-K1 GLP1R β-Arrestin Cell Line, 90 min at 37° C., normalized to GLP-1, read-out: GLP-1R β Arrestin EC50
[6] = CHO cells stably expressing human GLP-1 receptor, cAMP accumulation, 30 min, read-out: EC50 GLP-1R
[7] = β-arrestin-2 recruitment, PathHunter CHO-K1 GIPR β-Arrestin Cell Line, 90 min at 37° C., normalized to GIP, read-out: GIPR β Arrestin EC50
[8] = CHO cells stably expressing GIP receptor, cAMP accumulation, 30 min, read-out: EC50 GIP-1R

For `CC[C@H](C)[C@H](NC(=O)[C@H](CC(C)C)NC(=O)[C@H](Cc1c[nH]c2ccccc12)NC(=O)[C@H](CCC(N)=O)NC(=O)[C@@H](NC(=O)[C@H](Cc1ccccc1)NC(=O)[C@H](C)NC(=O)[C@H](CCCCNC(=O)COCCOCCNC(=O)COCCOCCNC(=O)CC[C@H](NC(=O)CCCCCCCCCCCCCCCCCCC(=O)O)C(=O)O)NC(=O)[C@H](CCC(N)=O)NC(=O)[C@H](C)NC(=O)[C@@H](NC(=O)[C@H](CCCCN)NC(=O)[C@H](CC(=O)O)NC(=O)[C@H](CC(C)C)NC(=O)C(C)(C)NC(=O)[C@@H](NC(=O)[C@H](CO)NC(=O)[C@H](Cc1ccc(O)cc1)NC(=O)[C@H](CC(=O)O)NC(=O)[C@H](CO)NC(=O)[C@@H](NC(=O)[C@H](Cc1ccccc1)NC(=O)[C@@H](NC(=O)CNC(=O)[C@H](CCC(=O)O)NC(=O)CCNC(=O)C1(c2ccccn2)CNC(=O)C1)[C@@H](C)O)[C@@H](C)O)[C@@H](C)CC)[C@@H](C)CC)C(C)C)C(=O)N[C@@H](C)C(=O)NCC(=O)NCC(=O)N1CCC[C@H]1C(=O)N[C@@H](CO)C(=O)N[C@@H](CO)C(=O)NCC(=O)N[C@@H](C)C(=O)N1CCC[C@H]1C(=O)N1CCC[C@H]1C(=O)N1CCC[C@H]1C(=O)N[C@@H](CO)C(N)=O` (stereo partly drawn) [Compound 151] ({X79-βAla}-EGTFTSDYSI[Aib]LDKIAQK([AEEA-AEEA-γGlu-C20 diacid])AFVQWLIAGGPSSGAPPPS-NH2), the EC50 (GLP-1 receptor [1]; [5]) was > 1000 nM, the EC50 (GLP-1 receptor [2]; [6]) was 1 to 10 nM and the Emax (GLP-1 receptor [2]) was 101%. For the same compound, the EC50 (GIP receptor [3]; [7]) was > 1000 nM, the EC50 (GIP receptor [4]; [8]) was 1 to 10 nM and the Emax (GIP receptor [4]) was 105%.
For `CC[C@H](C)[C@H](NC(=O)[C@H](CC(C)C)NC(=O)[C@H](Cc1c[nH]c2ccccc12)NC(=O)[C@H](CCC(N)=O)NC(=O)[C@@H](NC(=O)[C@H](Cc1ccccc1)NC(=O)[C@H](C)NC(=O)[C@H](CCCCNC(=O)COCCOCCNC(=O)COCCOCCNC(=O)CC[C@H](NC(=O)CCCCCCCCCCCCCCCCCCC(=O)O)C(=O)O)NC(=O)[C@H](CCC(N)=O)NC(=O)[C@H](C)NC(=O)[C@@H](NC(=O)[C@H](CCCCN)NC(=O)[C@H](CC(=O)O)NC(=O)[C@H](CC(C)C)NC(=O)C(C)(C)NC(=O)[C@@H](NC(=O)[C@H](CO)NC(=O)[C@H](Cc1ccc(O)cc1)NC(=O)[C@H](CC(=O)O)NC(=O)[C@H](CO)NC(=O)[C@@H](NC(=O)[C@H](Cc1ccccc1)NC(=O)[C@@H](NC(=O)CNC(=O)[C@H](CCC(=O)O)NC(=O)CCCNC(=O)CNC(=O)Nc1ccc(F)cc1)[C@@H](C)O)[C@@H](C)O)[C@@H](C)CC)[C@@H](C)CC)C(C)C)C(=O)N[C@@H](C)C(=O)NCC(=O)NCC(=O)N1CCC[C@H]1C(=O)N[C@@H](CO)C(=O)N[C@@H](CO)C(=O)NCC(=O)N[C@@H](C)C(=O)N1CCC[C@H]1C(=O)N1CCC[C@H]1C(=O)N1CCC[C@H]1C(=O)N[C@@H](CO)C(N)=O` [Compound 268] ({NH(4-F-phenyl)-CO}-G[GABA]EGTFTSDYSI[Aib]LDKIAQK([AEEA-AEEA-γGlu-C20 diacid])AFVQWLIAGGPSSGAPPPS-NH2), the EC50 (GLP-1 receptor [1]; [5]) was > 1000 nM, the EC50 (GLP-1 receptor [2]; [6]) was 1 to 10 nM and the Emax (GLP-1 receptor [2]) was 95%. The EC50 (GIP receptor [3]; [7]) was > 1000 nM, the EC50 (GIP receptor [4]; [8]) was 1 to 10 nM and the Emax (GIP receptor [4]) was 103%.
`CC[C@H](C)[C@H](NC(=O)[C@H](CO)NC(=O)[C@H](Cc1ccc(O)cc1)NC(=O)[C@H](CC(=O)O)NC(=O)[C@H](CO)NC(=O)[C@@H](NC(=O)[C@H](Cc1ccccc1)NC(=O)[C@@H](NC(=O)CNC(=O)[C@H](CCC(=O)O)NC(=O)CCNC(=O)C1(c2ccc(F)cc2F)CCCC1)[C@@H](C)O)[C@@H](C)O)C(=O)N[C@@H](Cc1ccc(O)cc1)C(=O)N[C@@H](CC(C)C)C(=O)N[C@@H](CC(=O)O)C(=O)N[C@@H](CCCCN)C(=O)N[C@@H](CCC(N)=O)C(=O)N[C@@H](C)C(=O)N[C@@H](C)C(=O)NC(C)(C)C(=O)N[C@@H](CCC(=O)O)C(=O)N[C@@H](Cc1ccccc1)C(=O)N[C@H](C(=O)N[C@@H](CC(N)=O)C(=O)N[C@@H](Cc1c[nH]c2ccccc12)C(=O)N[C@@H](CC(C)C)C(=O)N[C@@H](CC(C)C)C(=O)N[C@@H](C)C(=O)NCC(=O)NCC(=O)N1CCC[C@H]1C(=O)N[C@@H](CO)C(=O)N[C@@H](CO)C(=O)NCC(=O)N[C@@H](C)C(=O)N1CCC[C@H]1C(=O)N1CCC[C@H]1C(=O)N1CCC[C@H]1C(=O)N[C@@H](CO)C(=O)N[C@@H](CCCCNC(=O)COCCOCCNC(=O)COCCOCCNC(=O)CC[C@H](NC(=O)CCCCCCCCCCCCCCCCCCC(=O)O)C(=O)O)C(N)=O)C(C)C` [Compound 145] was tested, and the EC50 (GLP-1 receptor [1]; [5]) was > 1000 nM, the EC50 (GLP-1 receptor [2]; [6]) was 1 to 10 nM and the Emax (GLP-1 receptor [2]) was 97%. For the same compound, the EC50 (GIP receptor [3]; [7]) was > 1000 nM, the EC50 (GIP receptor [4]; [8]) was 1 to 10 nM and the Emax (GIP receptor [4]) was 102%.
With `CC[C@H](C)[C@H](NC(=O)[C@H](CC(C)C)NC(=O)[C@H](Cc1c[nH]c2ccccc12)NC(=O)[C@H](CCC(N)=O)NC(=O)[C@@H](NC(=O)[C@H](Cc1ccccc1)NC(=O)[C@H](C)NC(=O)[C@H](CCCCNC(=O)COCCOCCNC(=O)COCCOCCNC(=O)CC[C@H](NC(=O)CCCCCCCCCCCCCCCCCCC(=O)O)C(=O)O)NC(=O)[C@H](CCC(N)=O)NC(=O)[C@H](C)NC(=O)[C@@H](NC(=O)[C@H](CCCCN)NC(=O)[C@H](CC(=O)O)NC(=O)[C@H](CC(C)C)NC(=O)C(C)(C)NC(=O)[C@@H](NC(=O)[C@H](CO)NC(=O)[C@H](Cc1ccc(O)cc1)NC(=O)[C@H](CC(=O)O)NC(=O)[C@H](CO)NC(=O)[C@@H](NC(=O)[C@H](Cc1ccccc1)NC(=O)[C@@H](NC(=O)CNC(=O)[C@H](CCC(=O)O)NC(=O)CCNC(=O)C(C)(C)c1cccc(C#N)c1)[C@@H](C)O)[C@@H](C)O)[C@@H](C)CC)[C@@H](C)CC)C(C)C)C(=O)N[C@@H](C)C(=O)NCC(=O)NCC(=O)N1CCC[C@H]1C(=O)N[C@@H](CO)C(=O)N[C@@H](CO)C(=O)NCC(=O)N[C@@H](C)C(=O)N1CCC[C@H]1C(=O)N1CCC[C@H]1C(=O)N1CCC[C@H]1C(=O)N[C@@H](CO)C(N)=O` [Compound 150] ({X7-βAla}-EGTFTSDYSI[Aib]LDKIAQK([AEEA-AEEA-γGlu-C20 diacid])AFVQWLIAGGPSSGAPPPS-NH2) the EC50 (GLP-1 receptor [1]) was > 1000 nM, the EC50 (GLP-1 receptor [2]) was 0.1 to 1 nM and the Emax (GLP-1 receptor [2]) was 103%. For the same compound, the EC50 (GIP receptor [3]) was < 1000 nM, the EC50 (GIP receptor [4]) was 0.1 to 1 nM and the Emax (GIP receptor [4]) was 91%.
With `CC[C@H](C)[C@H](NC(=O)[C@H](CC(C)C)NC(=O)[C@H](Cc1c[nH]c2ccccc12)NC(=O)[C@H](CCC(N)=O)NC(=O)[C@@H](NC(=O)[C@H](Cc1ccccc1)NC(=O)[C@H](C)NC(=O)[C@H](CCCCNC(=O)COCCOCCNC(=O)COCCOCCNC(=O)CC[C@H](NC(=O)CCCCCCCCCCCCCCCCCCC(=O)O)C(=O)O)NC(=O)[C@H](CCC(N)=O)NC(=O)[C@H](C)NC(=O)[C@@H](NC(=O)[C@H](CCCCN)NC(=O)[C@H](CC(=O)O)NC(=O)[C@H](CC(C)C)NC(=O)C(C)(C)NC(=O)[C@@H](NC(=O)[C@H](CO)NC(=O)[C@H](Cc1ccc(O)cc1)NC(=O)[C@H](CC(=O)O)NC(=O)[C@H](CO)NC(=O)[C@@H](NC(=O)[C@H](Cc1ccccc1)NC(=O)[C@@H](NC(=O)CNC(=O)[C@H](CCC(=O)O)NC(=O)[C@@H](C)CNC(=O)C1(c2ccc(Cl)cc2)CCCC1)[C@@H](C)O)[C@@H](C)O)[C@@H](C)CC)[C@@H](C)CC)C(C)C)C(=O)N[C@@H](C)C(=O)NCC(=O)NCC(=O)N1CCC[C@H]1C(=O)N[C@@H](CO)C(=O)N[C@@H](CO)C(=O)NCC(=O)N[C@@H](C)C(=O)N1CCC[C@H]1C(=O)N1CCC[C@H]1C(=O)N1CCC[C@H]1C(=O)N[C@@H](CO)C(N)=O` [Compound 181] ({cPentCO(1-(4-ClPh))}-[β2hAla(2S)]EGTFTSDYSI[Aib]LDKIAQK([AEEA-AEEA-γGlu-C20 diacid])AFVQWLIAGGPSSGAPPPS-NH2) the EC50 (GLP-1 receptor [1]; [5]) was > 1000 nM, the EC50 (GLP-1 receptor [2]; [6]) was 0.1 to 1 nM and the Emax (GLP-1 receptor [2]) was 97%. For the same compound, the EC50 (GIP receptor [3]; [7]) was < 1000 nM, the EC50 (GIP receptor [4]; [8]) was 1 to 10 nM and the Emax (GIP receptor [4]) was 106%.
